PMC10649961, “Novel Mitochondria-Targeted Amphiphilic Aminophosphonium Salts and Lipids Nanoparticles: Synthesis, Antitumor Activity and Toxicity” (Nanomaterials, 2023)
Converted amounts (≈) assume the structure as drawn. Read-outs that look alike come from different tables or passages of the source.

Experiments:
[1] = test system: Pseudomonas aeruginosa ATCC 9027; assay: Antimicrobial activity, serial microdilutions, Pa; format: cell-based; set-up: key to Minimum Inhibitory Concentration (MIC) / Minimum bactericidal and fungicidal concentrations (MBC, MFC): – means non-active; conditions: for MIC / MBC: Pseudomonas aeruginosa; for MIC: ATCC9027, read-out: Minimum Inhibitory Concentration (MIC); for MBC: ATCC9027, read-out: Minimum bactericidal and fungicidal concentrations (MBC, MFC)
Procedure: (§1) The antimicrobial activity of test compounds was determined by serial microdilutions in 96-well plates using Mueller-Hinton broth for bacterial culture and Sabouraud broth for yeast culture. Cultures of Gram-positive bacteria were used in the experiment: Staphylococcus aureus ATCC 6538 P FDA 209P, Bacillus cereus ATCC 10702 NCTC 8035, Enterococcus faecalis ATCC 29212; Gram-negative bacteria: Escherichia coli ATCC 25922, Pseudomonas aeruginosa ATCC 9027; and yeast: Candida albicans ATCC 10231, purchased from the State Collection of Pathogenic Microorganisms and Cell Cultures “SCPM-Obolensk” (Obolensk, Russia). Methicillin-resistant strains of S. aureus (MRSA) were isolated from patients with chronic tonsillitis (MRSA-1) and sinusitis (MRSA-2) in the bacteriological laboratory of the Republican Clinical Hospital (Kazan, Russia). The experiments were carried out in triplicate.

[2] = test system: Staphylococcus aureus ATCC 6538 P FDA 209P; assay: Antimicrobial activity, serial microdilutions, Sa; format: cell-based; conditions: Staphylococcus aureus; for MIC: read-out: Minimum Inhibitory Concentration (MIC); for MBC: read-out: Minimum bactericidal and fungicidal concentrations (MBC, MFC)
Procedure: as §1

[3] = test system: Enterococcus faecalis ATCC 29212; assay: Antimicrobial activity, serial microdilutions, Ef; format: cell-based; set-up: key to Minimum Inhibitory Concentration (MIC) / Minimum bactericidal and fungicidal concentrations (MBC, MFC): – means non-active; conditions: for MIC / MBC: Enterococcus faecalis; for MIC: ATCC29212, read-out: Minimum Inhibitory Concentration (MIC); for MBC: ATCC29212, read-out: Minimum bactericidal and fungicidal concentrations (MBC, MFC)
Procedure: as §1

[4] = test system: Escherichia coli ATCC 25922; assay: Antimicrobial activity, serial microdilutions, Ec; format: cell-based; set-up: key to Minimum Inhibitory Concentration (MIC) / Minimum bactericidal and fungicidal concentrations (MBC, MFC): – means non-active; conditions: for MIC / MBC: Escherichia coli; for MIC: ATCC25922, read-out: Minimum Inhibitory Concentration (MIC); for MBC: ATCC25922, read-out: Minimum bactericidal and fungicidal concentrations (MBC, MFC)
Procedure: as §1

MRSA-2 = assay: Antimicrobial activity, serial microdilutions, MRSA-2; format: cell-based, S. aureus; conditions: Staphylococcus aureus; for MIC: read-out: Minimum Inhibitory Concentration (MIC); for MBC: read-out: Minimum bactericidal and fungicidal concentrations (MBC, MFC)
Procedure: as §1

[5] = test system: Bacillus cereus ATCC 10702 NCTC 8035; assay: Antimicrobial activity, serial microdilutions, Bc; format: cell-based; set-up: key to Minimum bactericidal and fungicidal concentrations (MBC, MFC): – means non-active; conditions: for MIC / MBC: Bacillus cereus; for MIC: read-out: Minimum Inhibitory Concentration (MIC); for MBC: read-out: Minimum bactericidal and fungicidal concentrations (MBC, MFC)
Procedure: as §1

[6] = test system: Candida albicans ATCC 10231; assay: Antimicrobial activity, serial microdilutions, Ca; format: cell-based; set-up: key to Minimum Inhibitory Concentration (MIC) / Minimum bactericidal and fungicidal concentrations (MBC, MFC): – means non-active; conditions: for Minimum Inhibitory Concentration (MIC) / Minimum bactericidal and fungicidal concentrations (MBC, MFC): Ca
Procedure: as §1

MRSA-1 = assay: Antimicrobial activity, serial microdilutions, MRSA-1; format: cell-based, S. aureus; set-up: key to Minimum Inhibitory Concentration (MIC) / Minimum bactericidal and fungicidal concentrations (MBC, MFC): – means non-active; conditions: for MIC / MBC: Staphylococcus aureus; for MIC: read-out: Minimum Inhibitory Concentration (MIC); for MBC: read-out: Minimum bactericidal and fungicidal concentrations (MBC, MFC)
Procedure: as §1

Hep G2 [7] = test system: Hep G2
PC3 [8] = test system: PC3
SK-OV-3 [9] = assay: cells; conditions: Homo sapiens, SK-OV-3, 48 h, read-out: Cytotoxic Effects (IC50)
T98G [10] = assay: cells; conditions: Homo sapiens, 48 h, read-out: Cytotoxic Effects (IC50)
T98G [11] = conditions: calculated relative to the cell line Chang liver (b)
MCF-7 [12] = test system: MCF-7
PANC-1 [13] = test system: PANC-1
MCF-7 [14] = assay: cells; conditions: Homo sapiens, MCF7, 48 h, read-out: Cytotoxic Effects (IC50)
PC3 [15] = assay: cells; conditions: Homo sapiens, PC-3, 48 h, read-out: Cytotoxic Effects (IC50), PC3, MTT assay, 48 h
Hep G2 [16] = assay: cells; conditions: Homo sapiens, HepG2, 48 h, read-out: Cytotoxic Effects (IC50)
DU-145 [17] = assay: cells; conditions: Homo sapiens, DU-145, 48 h, read-out: Cytotoxic Effects (IC50), DU-145, MTT assay, 48 h
A549 [18] = assay: cells; conditions: Homo sapiens, A549, 48 h, read-out: Cytotoxic Effects (IC50)
HuTu 80 [19] = test system: HuTu 80
SK-OV-3 [20] = test system: SK-OV-3
M-HeLa [21] = test system: M-HeLa
A549 [22] = conditions: reference normal cell line not marked at the place (ns cells)
HuTu 80 [23] = assay: cells; conditions: Homo sapiens, HuTu80, 48 h, read-out: Cytotoxic Effects (IC50)
M-HeLa [24] = assay: cells; conditions: Homo sapiens, 48 h, read-out: Cytotoxic Effects (IC50)
PANC-1 [25] = assay: cells; conditions: Homo sapiens, PANC-1, 48 h, read-out: Cytotoxic Effects (IC50)
DU-145 [26] = test system: DU-145
[27] = calculated relative to the cell line Chang liver (b)
[28] = reference normal cell line not marked at the place (ns cells)
[29] = calculated relative to the cell line WI38 (a)

`CCn1cc(C(=O)O)c(=O)c2cc(F)c(N3CCNCC3)cc21` [Norfloxacin, reference compound] gave an MIC [1] of 12.1 ± 1.1 µM (≈ 3.86 µg/mL), an MBC [1] of 49 ± 4.2 µM (≈ 15.6 µg/mL) and an MIC [2] of 7.5 ± 0.5 µM (≈ 2.4 µg/mL). It also gave an MBC [2] of 7.5 ± 0.6 µM (≈ 2.4 µg/mL), an MIC [3] of 24.4 ± 2.2 µM (≈ 7.79 µg/mL) and an MBC [3] of 24.4 ± 1.9 µM (≈ 7.79 µg/mL). For the same compound, the MIC [4] was 4.7 ± 0.02 µM (≈ 1.5 µg/mL), the MBC [4] was 24.4 ± 2.3 µM (≈ 7.79 µg/mL) and the MIC (MRSA-2) was 7.5 ± 0.5 µM (≈ 2.4 µg/mL). For the same compound, the MBC (MRSA-2) was 7.5 ± 0.6 µM (≈ 2.4 µg/mL), the MIC ([5]; Bc) was 24.4 ± 2.1 µM (≈ 7.79 µg/mL) and the MBC [5] was 24.4 ± 2.1 µM (≈ 7.79 µg/mL). The “Minimum Inhibitory Concentration (MIC)” value [6] was “–”, the “Minimum Inhibitory Concentration (MIC)” value (MRSA-1) was “–” and the “Minimum bactericidal and fungicidal concentrations (MBC, MFC)” value (MRSA-1) was “–”.

`CCCCCCCCCC[P+](c1ccccc1)(N(CC)CC)N(CC)CC` [5d, Decylbis(diethylamino)(phenyl)phosphonium iodide] was tested, and the “selectivity index (SI)” value (Hep G2 [7]; [27]) was 1.2, the “selectivity index (SI)” value (PC3 [8]; [27]) was 1.6 and the IC50 (SK-OV-3 [9]) was 10 ± 0.8 µM. For the same compound, the IC50 (T98G [10]) was 0.7 ± 0.05 µM, the “selectivity index (SI)” value (T98G [11]) was 1.9 and the MIC [1] was 500 ± 48 µM. The MBC [1] was 500 ± 47 µM, the “selectivity index (SI)” value (MCF-7 [12]; [27]) was 1.9 and the MIC [2] was 0.9 ± 0.07 µM. It also gave an MBC [2] of 125 ± 9 µM, an MIC [3] of 15.6 ± 1.2 µM and an MBC [3] of 125 ± 9 µM. For the same compound, the “selectivity index (SI)” value (PANC-1 [13]; [28]) was “ns (ns—no selectivity)”, the IC50 (MCF-7 [14]) was 0.7 ± 0.06 µM and the IC50 (PC3 [15]) was 0.8 ± 0.06 µM. For the same compound, the MIC [4] was 62.5 ± 5.4 µM, the MBC [4] was 62.5 ± 5.3 µM and the MIC (MRSA-2) was 0.9 ± 0.08 µM. It also gave an MBC (MRSA-2) of 62.5 ± 5.2 µM, an MIC ([5]; Bc) of 0.9 ± 0.08 µM and an MBC [5] of 500 ± 47 µM. For the same compound, the IC50 (Hep G2 [16]) was 1.1 ± 0.09 µM, the “Minimum bactericidal and fungicidal concentrations (MBC, MFC)” value [6] was “–” and the MIC ([6]; Candida albicans, ATCC10231, read-out: Minimum Inhibitory Concentration (MIC)) was 250 ± 21 µM. For the same compound, the IC50 (DU-145 [17]) was 0.45 ± 0.03 µM, the IC50 (A549 [18]) was 8.9 ± 0.7 µM and the “selectivity index (SI)” value (HuTu 80 [19]; [28]) was “ns (ns—no selectivity)”. The “selectivity index (SI)” value (SK-OV-3 [20]; [28]) was “ns (ns—no selectivity)”, the “selectivity index (SI)” value (M-HeLa [21]; [28]) was “ns (ns—no selectivity)” and the “selectivity index (SI)” value (A549 [22]) was “ns (ns—no selectivity)”. The IC50 (HuTu 80 [23]) was 2.5 ± 0.1 µM, the MIC (MRSA-1) was 0.9 ± 0.08 µM and the MBC (MRSA-1) was 125 ± 11 µM. The IC50 (M-HeLa [24]) was 1.5 ± 0.1 µM, the IC50 (PANC-1 [25]) was 1.4 ± 0.1 µM and the “selectivity index (SI)” value (DU-145 [26]; [27]) was 2.9.

`CCN(CC)[P+](CCCCCC[P+](N(CC)CC)(N(CC)CC)N(CC)CC)(N(CC)CC)N(CC)CC` [compound 9, 1,6-Hexanediyl-bis(hexaethyltriaminophosphonium)dibromide] was tested, and the “selectivity index (SI)” value (Hep G2 [7]; [28]) was “ns (ns—no selectivity)”, the “selectivity index (SI)” value (PC3 [8]; [29]) was 1.3 and the IC50 (SK-OV-3 [9]) was 36.4 ± 4.7 µM. The IC50 (T98G [10]) was > 100 µM, the “Minimum Inhibitory Concentration (MIC)” value [1] was “–” and the “Minimum bactericidal and fungicidal concentrations (MBC, MFC)” value [1] was “–”. The “selectivity index (SI)” value (MCF-7 [12]; [29]) was 1.2, the MIC [2] was 34.3 ± 5.4 µM and the MBC [2] was 137 ± 21 µM. The “Minimum Inhibitory Concentration (MIC)” value [3] was “–”, the “Minimum bactericidal and fungicidal concentrations (MBC, MFC)” value [3] was “–” and the “selectivity index (SI)” value (PANC-1 [13]; [29]) was 1.2. The IC50 (MCF-7 [14]) was 37.8 ± 4.8 µM, the IC50 (PC3 [15]) was 34.9 ± 4.5 µM and the “Minimum Inhibitory Concentration (MIC)” value [4] was “–”. For the same compound, the “Minimum bactericidal and fungicidal concentrations (MBC, MFC)” value [4] was “–”, the MIC (MRSA-2) was 34.3 ± 5.3 µM and the MBC (MRSA-2) was 137 ± 21 µM. The MIC ([5]; Bc) was 274 ± 48 µM, the “Minimum bactericidal and fungicidal concentrations (MBC, MFC)” value ([5]; Bc) was “–” and the IC50 (Hep G2 [16]) was 53.9 ± 6.9 µM. For the same compound, the “Minimum Inhibitory Concentration (MIC)” value [6] was “–”, the “Minimum bactericidal and fungicidal concentrations (MBC, MFC)” value [6] was “–” and the IC50 (DU-145 [17]) was 50.5 ± 6.4 µM. For the same compound, the IC50 (A549 [18]) was > 100 µM, the “selectivity index (SI)” value (HuTu 80 [19]; [29]) was 3.5 and the “selectivity index (SI)” value (SK-OV-3 [20]; [29]) was 1.3. The “selectivity index (SI)” value (M-HeLa [21]; [29]) was 1.5, the IC50 (HuTu 80 [23]) was 13.1 ± 1.7 µM and the MIC (MRSA-1) was 137 ± 19 µM. For the same compound, the MBC (MRSA-1) was 137 ± 18 µM, the IC50 (M-HeLa [24]) was 31.1 ± 3.9 µM and the IC50 (PANC-1 [25]) was 39.6 ± 5.1 µM. For the same compound, the “selectivity index (SI)” value (DU-145 [26]; [28]) was “ns (ns—no selectivity)”.
